Assay results as given in patent US12629406B2, “Alterations in endothelin receptors following hemorrhage and resuscitation by centhaquin” (MIDWESTERN UNIVERSITY, priority 2018, dated 2026).

Legend:
[1] = Phase II study of PMZ-2010 as resuscitative agent for hypovolemic shock (CTRI/2017/03/008184), interim analysis; format: in vivo, human
From the text: A prospective, multi-centric, randomized, double-blind, parallel, saline controlled phase II study of PMZ-2010 (centhaquin) as a resuscitative agent for hypovolemic shock due to excessive blood loss (CTRI/2017/03/008184) is being conducted. All subjects received standard treatment for shock (the type of treatment and care the enrolling institution would provide). Patients were randomly assigned to either control cohort (N=7) that received standard treatment along with normal saline or PMZ-2010 cohort (N=12) that received standard treatment along with PMZ-2010.

[2] = test system: isolated, perfused rabbit heart; details: cited from earlier work
[3] = Rat hemorrhagic shock, normal saline resuscitation: blood gases, hematocrit, lactate, MAP; format: in vivo
Description: Animal Studies. Male Sprague-Dawley rats (340 to 380 g) (Envigo, Indianapolis, IN) were housed for at least 4 days in a room with controlled temperature (23±1° C.), humidity (50±10%) and light (6:00 A.M. to 6:00 P.M.) before being used. Food and water were made available continuously. Animal care and use for experimental procedures were approved by the Institutional Animal Care and Use Committee of the Midwestern University. All anesthetic and surgical procedures were in compliance with the guidelines established by the Animal Care Committee.
Determination of cardiovascular response. The animals were anesthetized with urethane dissolved in isotonic saline. Urethane was administered in a dose of 1.5 g per kg body weight via intraperitoneal injection. Urethane was selected as an anesthetic agent, because it produces long lasting (8-10 hours) anesthesia with minimal cardiovascular and respiratory system depression. It produces a level of surgical anesthesia characterized by preservation of cardiovascular reflexes (Maggi and Meli 1986). Briefly, anaesthetized rats were immobilized on a surgical board equipped with controlled heating pad. Blood PO2, Pco2 and pH, were maintained using a tracheotomy cannula connected to a rodent ventilator (Model 683, Harvard Apparatus Inc., Holliston, MA). MAP and HR were measured by cannulating the left femoral artery with pressure catheter SPR-320 (Millar Instruments), connected to the ML221 bridge amplifier (AD Instruments) through AEC-10C connector and the signals were acquired (1000 S^−1) using PowerLab 16/30 data acquisition system (Gulati et al. 2012; Pacher et al. 2008). A Perimed laser Doppler flow probe was placed in the renal medulla to measure blood perfusion and data was captured on PowerLab 16/30 data acquisition system. The left femoral vein was cannulated using PE 50 tubing (Clay Adams, Parsipanny, NJ) and secured for resuscitation.
Determination of arterial blood gases and base deficit. Baseline arterial blood pH, PO2, Pco2, Na^+, K^+ and lactate were monitored prior to induction of shock, 30 minutes after induction of shock, and 30 and 60 minutes following vehicle or centhaquin resuscitation. Blood samples (0.15 ml) were drawn from the arterial cannula using blood gas sampling syringes (Innovative Medical Technologies, Inc. Leawood, KS) and analyzed using a pHOx Ultra analyzer (Nova Biomedical Corporation, Waltham, MA). The base deficit was calculated using the formula (Davis et al. 1998; Paladino et al. 2008): SBD=0.9287×[HCO3^−−24.4+14.83×(pH-7.4)]
Induction of Hemorrhagic Shock. Hemorrhage was induced by withdrawing blood from the femoral artery at a rate of approximately 0.5 to 1 mL/min until a MAP of 35 mmHg was reached. This MAP was maintained for 30 minutes by further withdrawal of blood, if necessary. The hemorrhagic shock model used in the present study is a well-established rodent model of manageable pressure hemorrhage (Buehler et al. 2000; Gulati et al. 1997; Gulati and Sen 1998). The volume of blood loss was about approximately 8.0 ml in each rat and was similar in various groups, amounting to approximately 40% of the total blood. Measured hematocrit levels were similar in various groups. […]
Experimental design. […] Additional experiments were also carried out where the amount of norepinephrine (a very commonly used vasopressor during resuscitation) required to maintain MAP at 70 mmHg in normal saline (NS) or centhaquin (0.01 mg/kg) treated rats (volume equal to blood loss) was determined. […]

Cc1cccc(N2CCN(CCc3ccc4ccccc4n3)CC2)c1 [centhaquin, 2-[2-(4-(3-methyphenyl)-1-piperazinyl)]ethyl-quinoline]
increase of diastolic blood pressure ([1]; 48 hours after resuscitation, control 15.4%): 34.9%
blood urea nitrogen versus control cohort ([1]; baseline and discharge): similar
decrease of serum creatinine level ([1]; baseline to discharge, control 25.35%): 42.61%
increase of glomerular filtration rate ([1]; baseline to discharge, control 40.00%): 81.52%
time spent on ventilator ([1]; control 5.09±3.14 days): 0.85 ± 0.71 days
total amount of vasopressors needed in first 48 hours of resuscitation ([1]; control 18.4±12.1 mg): 1.3 ± 1.2 mg
decrease of blood lactate levels ([1]; control 47%): 63%
time in intensive care unit, of the total hospital stay ([1]; control 57.3%): 39.3%
Total Number of doses administered ([1]; first 48 hours, 12 patients): 13 doses in 12 patients
Number of doses per patient ([1]; first 48 hours, Mean ± SEM): 1.08 ± 0.08
increase in glomerular filtration rate, more compared to standard treatment ([1]; in vivo): 41.52%
reduction of serum creatinine levels, more compared to standard treatment ([1]; in vivo): 17.26%
total blood products administered in the first 48 hours, less than control ([1]; in vivo): 23.4%
total fluids needed in the first 48 hours of resuscitation, less than control ([1]; in vivo): 19.9%
adverse events (primary endpoint of safety) ([1]; patients, N=12): no adverse event was reported
blood pressure increase versus control cohort ([1]; systolic and diastolic, baseline to discharge (FIG. 9)): more than that observed in control cohort
increase of systolic blood pressure from baseline ([1]; until 48 hours after resuscitation, control 34.5%): 45.2%
inotropic effect, ventricular contractions [2]: positive inotropic effect
effect on blood pH of hemorrhaged rats ([3]; centhaquin 0.01 and 0.10 mg/kg in normal saline): significantly prevented the reduction of pH
MAP post resuscitation ([3]; centhaquin 0.01 and 0.10 mg/kg, p<0.01): significant increase
blood lactate levels compared to the saline group ([3]; normal saline model): decrease
change in hematocrit after treatment ([3]; normal saline model): no change
effect on hemorrhage-induced decrease in pCO2 and increase in pO2 ([3]; resuscitation with centhaquin in normal saline): not affected
